Drawing on patent publication US20150329498A1, “IRAK INHIBITORS AND USES THEREOF” (Nimbus Iris, Inc., priority 2014, published 2015), this text covers IC50 for 26 molecules.

Molecules are shown by their SMILES. Some results are limits rather than exact numbers.

The assay addresses T1, IRAK4 (Homo sapiens, UniProt Q9NWZ3).
T1 construct: purchased CARNA Bioscience 09-145
T1 sequence (Q9NWZ3 1-460): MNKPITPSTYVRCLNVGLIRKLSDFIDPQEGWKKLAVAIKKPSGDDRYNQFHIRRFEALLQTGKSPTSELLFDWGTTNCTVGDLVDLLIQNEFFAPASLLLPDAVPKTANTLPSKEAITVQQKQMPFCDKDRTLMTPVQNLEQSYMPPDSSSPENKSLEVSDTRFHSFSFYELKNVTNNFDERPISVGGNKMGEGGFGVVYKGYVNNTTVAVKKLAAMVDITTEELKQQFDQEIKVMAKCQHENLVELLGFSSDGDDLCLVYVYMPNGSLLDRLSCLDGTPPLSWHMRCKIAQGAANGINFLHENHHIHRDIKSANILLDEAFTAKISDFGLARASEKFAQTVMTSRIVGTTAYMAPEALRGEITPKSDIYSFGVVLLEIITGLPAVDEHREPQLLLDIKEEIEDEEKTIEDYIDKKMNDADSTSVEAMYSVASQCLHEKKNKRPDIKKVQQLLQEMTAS
The assay can be described thus: IRAK-4 activity inhibition assay (Caliper). Type of assay: biochemical. Conditions: 3.5 nM IRAK4, 1.5 μM Peptide 8, 37 μM ATP. The procedure: A 1x kinase base buffer was prepared from 50 mM HEPES, pH 7.5 and 0.0015% Brij-35. A stop buffer was prepared from 100 mM HEPES, pH 7.5, 0.015% Brij-35, 0.2% Coating Reagent #3, and 50 mM EDTA.
Test compound was diluted to 50× of the final desired highest inhibitor concentration in reaction by 100% DMSO. 100 ul of this compound dilution was transferred to a well in a 96-well plate. For example, if desired highest inhibitor concentration in IC50 determination is 100 uM, then prepare 5000 uM of compound DMSO solution in this step.
Test compound was serially diluted by transferring 30 μl to 60 μl of 100% DMSO in the next well and so forth for a total of 10 concentrations. 100 μl of 100% DMSO was added to two empty wells for no compound control and no enzyme control in the same 96-well plate.
A new 96-well plate was marked as intermediate plate. 5 μl of compound serial dilution was transferred from source plate to the corresponding wells of the intermediate plate. 45 μl of 1x kinase base buffer (KB buffer) was added to each well of the intermediate plate. The intermediate plate was placed for 10 min on a shaker.
5 μl of each well was transferred from the 96-well intermediate plate to a 384-well plate in duplicates. For example, A1 of the 96-well plate is transferred to A1 and A2 of the 384-well plate. A2 of the 96-well plate is transferred to A3 and A4 of the 384-well plate, and so on.
IRAK4 and DTT in 1x kinase base buffer was added. The 2.5x enzyme mix contained 8.8 nM IRAK4 and 5 mM DTT.
Peptide 8, ATP, MgCl2 and MnCl2 were added in the 1x kinase base buffer. The 2.5x peptide mix contained 3.75 μM peptide 8, 92.5 μM ATP, 12.5 mM MgCl2 and 2.5 mM MnCl2.
Assay plate already contained 5 μl of compound in 10% DMSO. Added 10 μl of 2.5x enzyme solution to each well of the 384-well assay plate, except no enzyme control wells. The final concentration of IRAK4 in reaction was 3.5 nM. Added 10 μl of 1x kinase base buffer to no enzyme control wells in the assay plate. Incubated at room temperature for 10 min.
Added 10 μl of 2.5x peptide solution to each well of the 384-well assay plate. The final concentration of Peptide 8 and ATP was 1.5 μM and 37 μM, respectively. Incubated at for 40 minutes. Added 25 μl of stop buffer to stop reaction. Collected data on Caliper.
Copied conversion % data from Caliper program. Converted conversion % values to percent inhibition values. Percent inhibition=(max−conversion %)/(max−min)*100, where “max” means the conversion % of DMSO control and “min” means the conversion % of no enzyme control.
The compound numbers correspond to the compound numbers in Table 1. Compounds having an activity designated as “A” provided an IC50≦5 μM; compounds having an activity designated as “B” provided an IC50 of 5-20 μM; compounds having an activity designated as “C” provided an IC50 of 20-50 μM; and compounds having an activity designated as “D” provided an IC50≧50 μM. “NA” stands for “not assayed.”

As a reminder, the IC50 is the concentration that gives 50% inhibition. Read a high IC50 as weaker potency in that assay. With `c1ccc2c(N[C@H]3CC[C@H](N4CCOCC4)CC3)ncnc2c1` [Compound I-1, N-((1r,4r)-4-morpholinocyclohexyl)quinazolin-4-amine], the concentration for half-maximal inhibition (IC50) is ≤ 5 µM.

As for `Brc1ccc2ncnc(O[C@H]3CC[C@H](N4CCOCC4)CC3)c2c1` [Compound I-4, 4-((1r,4r)-4-((6-bromoquinazolin-4-yl)oxy)cyclohexyl)morpholine], the IC50 is ≤ 5 µM.

In the case of `FC(F)(F)c1ccc2ncnc(O[C@H]3CC[C@H](N4CCOCC4)CC3)c2c1` [Compound I-6, 4-((1r,4r)-4-((6-(trifluoromethyl)quinazolin-4-yl)oxy)cyclohexyl)-morpholine], the concentration for half-maximal inhibition (IC50) is ≤ 5 µM.

Regarding `N#Cc1ccc2ncnc(O[C@H]3CC[C@H](N4CCOCC4)CC3)c2c1` [Compound I-8, 4-(((1r,4r)-4-morpholinocyclohexyl)oxy)quinazoline-6-carbonitrile], the IC50 was ≤ 5 µM. On to `NC(=O)c1ccc2ncnc(O[C@H]3CC[C@H](N4CCOCC4)CC3)c2c1` [Compound I-9, 4-(((1r,4r)-4-morpholinocyclohexyl)oxy)quinazoline-6-carboxamide], for which the IC50 was ≤ 5 µM. With `FC(F)(F)c1ccc2ncnc(N[C@H]3CC[C@H](N4CCOCC4)CC3)c2c1` [Compound I-12, N-((1r,4r)-4-morpholinocyclohexyl)-6-(trifluoromethyl)-quinazolin-4-amine] the figure was ≤ 5 µM.

As to `CN(CC(=O)N1CCCC1)[C@H]1CC[C@H](Nc2ncnc3ccc(C#N)cc23)CC1` [Compound I-13, 4-(((1r,4r)-4-(methyl(2-oxo-2-(pyrrolidin-1-yl)ethyl)amino)-cyclohexyl)amino)quinazoline-6-carbonitrile], the concentration for half-maximal inhibition (IC50) is ≤ 5 µM. For the molecule `OCC(O)c1ccc2ncnc(O[C@H]3CC[C@H](N4CCOCC4)CC3)c2c1` (some centres unmarked) [Compound I-17, 1-(4-(((1r,4r)-4-morpholinocyclohexyl)oxy)quinazolin-6-yl)ethane-1,2-diol], the IC50 was ≤ 5 µM.

With `CCc1ccc2ncnc(O[C@H]3CC[C@H](N4CCOCC4)CC3)c2c1` [Compound I-18, 4-((1r,4r)-4-((6-ethylquinazolin-4-yl)oxy)cyclohexyl) morpholine], the IC50 is ≤ 5 µM. With `OCc1ccc2ncnc(O[C@H]3CC[C@H](N4CCOCC4)CC3)c2c1` [Compound I-19, (4-(((1r,4r)-4-morpholinocyclohexyl)oxy)quinazolin-6-yl)methanol] the figure was ≤ 5 µM; with `OCC(O)c1ccc2ncnc(N[C@H]3CC[C@H](N4CCOCC4)CC3)c2c1` (some centres unmarked) [Compound I-21, 1-(4-(((1r,4r)-4-morpholinocyclohexyl)amino)quinazolin-6-yl)-ethane-1,2-diol], ≤ 5 µM; with `OCc1ccc2ncnc(N[C@H]3CC[C@H](N4CCOCC4)CC3)c2c1` [Compound I-23, (4-(((1r,4r)-4-morpholinocyclohexyl)amino)quinazolin-6-yl)methanol], ≤ 5 µM.

With `COCc1ccc2ncnc(N[C@H]3CC[C@H](N4CCOCC4)CC3)c2c1` [Compound I-32, 6-(methoxymethyl)-N-((1r,4r)-4-morpholinocyclohexyl)quina-zolin-4-amine], the half-inhibitory concentration (IC50) was ≤ 5 µM. Then `COCCc1ccc2ncnc(N[C@H]3CC[C@H](N4CCOCC4)CC3)c2c1` [Compound I-33, 6-(2-methoxyethyl)-N-((1r,4r)-4-morpholinocyclohexyl)-quinazolin-4-amine], with ≤ 5 µM; and `CC1(C)CCN([C@H]2CC[C@H](Nc3ncnc4ccc(C#N)cc34)CC2)CC1` [Compound I-37, 4-(((1r,4r)-4-(4,4-dimethylpiperidin-1-yl)cyclohexyl)amino)-quinazoline-6-carbonitrile], with ≤ 5 µM. With `OC/C=C\c1ccc2ncnc(N[C@H]3CC[C@H](N4CCOCC4)CC3)c2c1` [Compound I-42, (Z)-3-(4-(((1r,4r)-4-morpholinocyclohexyl)amino)quinazolin-6-yl)prop-2-en-1-ol] the figure was ≤ 5 µM. As to `C=Cc1ccc2ncnc(N[C@H]3CC[C@H](N4CCC(C)(C)CC4)CC3)c2c1` [Compound I-43, N-((1r,4r)-4-(4,4-dimethylpiperidin-1-yl)cyclohexyl)-6-vinyl-quinazolin-4-amine], the half-maximal inhibitory concentration (IC50) is ≤ 5 µM. On to `CCc1ccc2ncnc(N[C@H]3CC[C@H](N4CCC(C)(C)CC4)CC3)c2c1` [Compound I-45, N-((1r,4r)-4-(4,4-dimethylpiperidin-1-yl)cyclohexyl)-6-ethylquina-zolin-4-amine], for which the IC50 was ≤ 5 µM.

Turning to `N#Cc1ccc2nccc(N[C@H]3CC[C@H](N4CCC5(CC4)CC5)CC3)c2c1` [Compound I-48, 4-(((1r,4r)-4-(6-azaspiro[2.5]octan-6-yl)cyclohexyl)-amino)quinoline-6-carbonitrile], the 50% inhibitory concentration (IC50) is ≤ 5 µM. As for `C=Cc1ccc2nccc(N[C@H]3CC[C@H](N4CCC5(CC4)CC5)CC3)c2c1` [Compound I-49, N-((1r,4r)-4-(6-azaspiro[2.5]octan-6-yl)cyclohexyl)-6-vinylquino-lin-4-amine], the half-inhibitory concentration (IC50) was ≤ 5 µM. With `NC(=O)CCc1ccc2ncnc(N[C@H]3CC[C@H](N4CCOCC4)CC3)c2c1` [Compound I-50, 3-(4-(((1r,4r)-4-morpholinocyclohexyl)amino)quinazolin-6-yl)propanamide] the figure was ≤ 5 µM; with `N#CCCc1ccc2ncnc(N[C@H]3CC[C@H](N4CCOCC4)CC3)c2c1` [Compound I-51, 3-(4-(((1r,4r)-4-morpholinocyclohexyl)amino)quinazolin-6-yl)propanenitrile], ≤ 5 µM.

As to `O=C(O)/C=C/c1ccc2ncnc(N[C@H]3CC[C@H](N4CCOCC4)CC3)c2c1` [Compound I-55, (E)-3-(4-(((1 r,4r)-4-morpholinocyclohexyl)amino)quinazolin-6-yl)acrylic acid], the half-inhibitory concentration (IC50) is ≤ 5 µM. As to `CC(C)(O)/C=C/c1ccc2ncnc(N[C@H]3CC[C@H](N4CCOCC4)CC3)c2c1` [Compound I-57, (E)-2-methyl-4-(4-(((1r,4r)-4-morpholinocyclohexyl)amino)quina-zolin-6-yl)but-3-en-2-ol], the 50% inhibitory concentration (IC50) was ≤ 5 µM. Then `Cn1cc(-c2ccc3ncnc(N[C@H]4CC[C@H](N5CCOCC5)CC4)c3c2)cn1` [Compound I-60, 6-(1-methyl-1H-pyrazol-4-yl)-N-((1r,4r)-4-morpholinocyclo-hexyl)quinazolin-4-amine], with ≤ 5 µM.

With `Cc1cc(Nc2nc(N[C@H]3CC[C@H](N4CCOCC4)CC3)c3cc(C#N)ccc3n2)sn1` [Compound I-61, 2-((3-methylisothiazol-5-yl)amino)-4-(((1r,4r)-4-morpholino-cyclohexyl)amino)quinazoline-6-carbonitrile], the IC50 was ≤ 5 µM.
